Experiments:
[1] = test system: Human NT2/D1 precursor cells (NT2/D1); assay: Neuroplastogenicity assay using human model (NT2) neurons; type: cell-based; settings: RA-treated NT2 cells, 1 μM, 48 hours, vs 0.1% DMSO
Description: The compound with formula A(XXXII) was assayed for neuroplastogenic potential using the following procedure. Human NT2/D1 precursor cells (NT2/D1) were purchased from the American Type Culture Collection (ATCC, Manassas, VA, USA). The neuronal differentiation was carried out as previously described (Roloff et al., 2015, PLOS ONE e0118536:1-14; Roloff et al., 2013, BMC Neuroscience 14:141-155) with minor modifications. First, NT2/D1 cells were seeded in T-25 suspension culture flasks (REF #690190, Greiner bio-one, Germany). Each flask contained a minimum of 5×10^6 cells in 10 ml of DMEM/F12 supplemented with 10% fetal bovine serum (FBS), 1% penicillin and streptomycin and 10 μM retinoic acid (RA medium) to start neuronal differentiation. The cells were cultured for 3 days in free floating medium. At the end of the incubation, cells were trypsinized and collected by centrifugation, mechanically dispersed, and counted. Counted cells were seeded on Poly D-Lysine (PDL) coated cover slips (12 mm; diameter round, Fisher Scientific; GG-12-PDL) containing minimum of 0.1×10^5 cells in culture medium without RA. The next day, culture medium was replaced with RA medium containing 2% of FBS. These cells were cultured for 5 days, with a change of RA medium two days later. For the neuronal outgrowth assay, after cells had successfully attached and established under coverslips, the RA medium was replaced with one of the following: (1) test molecules at one of two different concentrations (10 μm or 1 μm); (2) positive control ROCK inhibitor Y-27632, (Dihydrochloride, Sigma-Aldrich); (2) positive control ibuprofen (14883-1G; Sigma-Aldrich), or (4) negative control culture medium containing 2% of FBS. Cells under these conditions were incubated for 48 hours under standard conditions (37° C., 5% CO2) in an incubator prior to the immunofluorescent assay.
For the immunofluorescent assay, the treated cells housed under coverslips were collected after 48 hours of drug treatments. These coverslips washed with calcium chloride-free and magnesium chloride-free phosphate buffered saline (PBS) pH 7.4 (Gibco, #70011-044) and fixed using paraformaldehyde (PFA) 4% in PBS (#J61899, thermoscientific) for 15 min at room temperature (RT) and washed three times with 0.01% of Triton-X100 in PBS (PBST) to remove remaining PFA and to permeabilize the cells. Unspecific binding sites were blocked with 5% Bovine Serum Albumin (BSA) solution (#9048-46-8, Millipore) in PBST for 60 minutes at RT. Rabbit monoclonal antibody β-III-Tubulin (1:5,000, ab52623, Abcam) was applied overnight (O/N) at 4° C. […] Finally, the immunofluorescence images were detected by using Olympus VS110 slide scanner microscope. […]

5-HT1A receptor = target: T1, 5-HT1A receptor (Homo sapiens, UniProt P08908); assay: 5-HT1A receptor radioligand competition assay (SPA); type: binding
T1 construct: purchased Perkin Elmer 6110501400UA
T1 sequence (P08908 1-422): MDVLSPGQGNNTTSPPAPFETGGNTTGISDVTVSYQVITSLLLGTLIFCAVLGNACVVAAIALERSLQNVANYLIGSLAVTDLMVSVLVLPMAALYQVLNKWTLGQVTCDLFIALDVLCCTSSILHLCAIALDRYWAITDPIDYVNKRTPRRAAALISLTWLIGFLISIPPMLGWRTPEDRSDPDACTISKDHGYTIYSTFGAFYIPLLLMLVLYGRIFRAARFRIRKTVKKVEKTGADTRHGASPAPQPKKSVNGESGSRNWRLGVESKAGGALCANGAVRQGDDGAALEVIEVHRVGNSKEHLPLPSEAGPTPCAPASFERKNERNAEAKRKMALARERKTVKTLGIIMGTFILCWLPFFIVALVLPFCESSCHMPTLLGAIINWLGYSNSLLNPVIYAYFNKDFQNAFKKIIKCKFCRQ

5-HT2A receptor = 5-HT2A receptor (Homo sapiens, UniProt P28223); assay: 5-HT2A receptor radioligand competition assay (SPA)
Chain of 5-HT2A receptor (P28223 whole entry): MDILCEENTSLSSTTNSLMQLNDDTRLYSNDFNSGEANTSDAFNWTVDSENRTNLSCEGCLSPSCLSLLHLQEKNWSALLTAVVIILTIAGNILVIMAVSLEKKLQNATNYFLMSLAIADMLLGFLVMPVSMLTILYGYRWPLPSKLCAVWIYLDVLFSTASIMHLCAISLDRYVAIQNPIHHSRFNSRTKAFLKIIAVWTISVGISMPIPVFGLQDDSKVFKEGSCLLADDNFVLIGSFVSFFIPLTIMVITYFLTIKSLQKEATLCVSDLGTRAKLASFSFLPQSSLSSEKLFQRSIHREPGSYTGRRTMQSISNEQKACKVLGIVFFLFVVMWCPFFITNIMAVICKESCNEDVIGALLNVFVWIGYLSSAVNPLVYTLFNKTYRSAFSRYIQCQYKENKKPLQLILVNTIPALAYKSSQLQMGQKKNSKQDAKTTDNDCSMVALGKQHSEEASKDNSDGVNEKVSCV

SMILES | neurite outgrowth (β-III-tubulin immunofluorescence) compared to negative control [1] | Ki (5-HT1A receptor) [nM] | Ki (5-HT2A receptor) [nM]
CC(Cc1ccc2c(c1)OCO2)NCCc1c[nH]c2ccccc12 (stereo not drawn) [A(XXXI)] | strong signs of neurite outgrowth |  | 
CC(Cc1ccc2c(c1)OCO2)N(C)CCc1c[nH]c2ccccc12 (stereo not drawn) [A(XXXII)] | strong signs of neurite outgrowth | 465 | 465
C[C@@H](N)[C@H]1CC[C@H](C(=O)Nc2ccncc2)CC1 [Y-27632, reference compound] | strong signs of neurite outgrowth |  | 
CC(C)Cc1ccc(C(C)C(=O)O)cc1 (stereo not drawn) [ibuprofen, reference compound] | strong signs of neurite outgrowth |  | 

Reference: patent US12428408B2, “Fused heterocyclic mescaline derivatives” (Enveric Biosciences Canada Inc., priority 2022, dated 2025)
